US12171779B2, “Regulated drug delivery via controlled degradable chondroitin sulfate particles” (UNIVERSITY OF SOUTH FLORIDA, priority 2021, dated 2024)

Assays:
[1] = Total phenolic content by Folin-Ciocalteau (FC) method; conditions: 1000 μg/mL concentration
Experimental: Total phenolic content of the particles was evaluated by Folin-Ciocalteau (FC) method. Briefly, 0.1 mL of 1 mg/mL microgel suspensions were reacted with 1.25 mL of 0.2 N solution of FC phenol reagent for 4 min. Next, 1 mL of 0.7 M sodium bicarbonate solution was added to this mixture and kept in the dark for 2 hours. Then, the total phenol content of the microgels was measured by using a UV/Vis spectrophotometer (T80+PG Instrument) at 760 nm. The antioxidant activity of the microgels was expressed as μg/mL gallic acid equivalent. The analysis was repeated three times, and the values are reported as the average values with standard deviations.

[2] = cited from earlier work

O=C(/C=C/c1ccc(O)c(O)c1)O[C@H](Cc1ccc(O)c(O)c1)C(=O)O [RA, Rosmarinic acid]
Total phenol content (TPC), gallic acid equivalent [1]: 556±35 μg/mL gallic acid equivalent
IC50 (50% inhibition of DPPH radical) [2]: 1.3 ± 0.1 µg/mL
